Consider 3 compounds from article PMC4169885 (Biochemical pharmacology, 2014).

For data set [1], the target named is T1, CYP2J2 (Homo sapiens, UniProt P51589).
T1 sequence (P51589 1-502): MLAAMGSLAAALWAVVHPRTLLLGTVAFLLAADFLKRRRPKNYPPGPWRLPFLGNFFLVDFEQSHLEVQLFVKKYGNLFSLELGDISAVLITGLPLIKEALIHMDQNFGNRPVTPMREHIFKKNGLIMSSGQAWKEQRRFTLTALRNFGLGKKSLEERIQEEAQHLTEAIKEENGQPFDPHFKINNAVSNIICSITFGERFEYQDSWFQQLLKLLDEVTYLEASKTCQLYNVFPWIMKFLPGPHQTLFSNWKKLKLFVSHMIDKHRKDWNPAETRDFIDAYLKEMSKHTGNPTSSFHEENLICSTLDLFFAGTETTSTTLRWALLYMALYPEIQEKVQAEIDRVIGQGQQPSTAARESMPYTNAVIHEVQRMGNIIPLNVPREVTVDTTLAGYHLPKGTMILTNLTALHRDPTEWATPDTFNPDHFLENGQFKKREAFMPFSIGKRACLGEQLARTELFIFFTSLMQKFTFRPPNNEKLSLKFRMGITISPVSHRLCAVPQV
The settings on record: CYP2J2, linear scaled according to kinact/KI (SCHH approach).

Data set [2] in a line: Plasma concentration-time profile of RTV and metabolites. Format: in vivo. The note with it: human, 400 mg bid.
The next data set deals with CYP2D6 (Homo sapiens, UniProt P10635). The note with it: CYP2D6, R2 formation; ref [6], [34]; cited from earlier work.
Sequence of CYP2D6 (P10635 whole entry): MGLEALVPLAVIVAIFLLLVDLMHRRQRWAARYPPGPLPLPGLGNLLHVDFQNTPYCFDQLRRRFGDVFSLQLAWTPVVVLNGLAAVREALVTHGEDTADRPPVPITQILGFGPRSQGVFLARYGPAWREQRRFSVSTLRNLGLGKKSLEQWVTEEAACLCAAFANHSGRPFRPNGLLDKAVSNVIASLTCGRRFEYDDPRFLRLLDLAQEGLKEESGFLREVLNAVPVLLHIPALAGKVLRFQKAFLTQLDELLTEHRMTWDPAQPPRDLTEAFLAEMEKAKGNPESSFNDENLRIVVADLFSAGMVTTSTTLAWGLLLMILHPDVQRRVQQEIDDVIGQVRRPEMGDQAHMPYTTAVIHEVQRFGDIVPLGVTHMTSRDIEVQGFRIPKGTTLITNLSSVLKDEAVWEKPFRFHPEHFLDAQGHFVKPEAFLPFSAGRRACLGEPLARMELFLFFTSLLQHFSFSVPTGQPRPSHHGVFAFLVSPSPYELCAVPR
For another data set, the system named is CYP3A4. The settings on record: ref [27] [11]; cited from earlier work.
The target in data set [3] is T1, CYP2J2. The data set is described as follows: in vitro. The note with it: recombinant enzyme.
Data set [4] relates to CYP2J2. The settings on record: projected; ref [14]; cited from earlier work.

In the case of `CC(C)c1nc(CN(C)C(=O)N[C@H](C(=O)N[C@@H](Cc2ccccc2)C[C@H](O)[C@H](Cc2ccccc2)NC(=O)OCc2cncs2)C(C)C)cs1` [RTV, Ritonavir], the “slope at 1 μM” value at CYP2J2 [1] is given as 0.0044 ^4 μM min^-1; in the data set on CYP3A4, 0.17 ^2 μM min^-1. Moreover, the highest concentration (Cmax) in data set [2] came out at 4.8 µM. Also, at CYP2D6, the Km was 1.6 µM.
Regarding `C#C[C@]1(O)CC[C@H]2[C@@H]3CCC4=Cc5oncc5C[C@]4(C)[C@H]3CC[C@@]21C` [danazol], the inhibition at 5 min at CYP2J2 [3] amounted to 95%.
Take `CC(C)(C)c1ccc(C(=O)CCCN2CCC(OC(c3ccccc3)c3ccccc3)CC2)cc1` [ebastine]: in the data set with CYP2J2 [4], the “contribution of CYP2J2 to intestinal ebastine hydroxylation” value is recorded as at most 70%.

A word on the Cmax: it is the maximum level reached in the sampled fluid or tissue. In general, Km refers to the concentration of substrate that gives half-maximal velocity. A word on the inhibition: it is the relative decrease from the control value, in per cent.
